Results as given in publication PMC2409936, “Phase I and pharmacokinetic study of XR11576, an oral topoisomerase I and II inhibitor, administered on days 1–5 of a 3-weekly cycle in patients with advanced solid tumours” (British Journal of Cancer, 2004).
Where two headings read alike, the source gives them in different places.

How the values were obtained:
advanced solid tumours = test: Tumour evaluation according to RECIST; assay type: in vivo, human
Description: Before treatment, a complete medical history was recorded and a physical examination performed. A complete blood count (CBC) including white blood cell differential and serum biochemistry, which involved sodium, potassium, calcium, urea, creatinine, uric acid, total protein, albumin, total bilirubin, alkaline phosphatase, γ-glutamyl transferase, aspartate aminotransferase, alanine aminotransferase, lactate dehydrogenase and glucose, were performed, as were urinalysis, pregnancy test, relevant tumour markers, electrocardiogram and a chest X-ray. The electrocardiogram was also performed 2 and 24 h after the first drug administration in the first and second cycles. Weekly evaluations included history, physical examination, toxicity assessment according to the CTC criteria version 2.0, and serum chemistries. Complete blood count was determined twice weekly. Tumour evaluation was performed after every two courses according to the Response Evaluation Criteria in Solid Tumours (RECIST) ([Therasse et al, 2000]). Patients were taken off protocol at the onset of disease progression.

[1] = set-up: method as in data on file, FPD 1055; conditions: ref data on file, FPD 1055; cited from earlier work
[2] = Urinary excretion in patients; assay type: in vivo, human; conditions: within 24 h after drug administration
Description: (§1) All samples were centrifuged immediately after sampling at 3000 r.p.m. for 10 min at 4°C and the plasma was stored at −20°C or lower in polypropylene tubes in the dark until analysis. A total of four urine samples were also collected over a 24-h period; 0–4, 4–8, 8–12 and 12–24 h post-dosing on day 1 of the first cycle only. Of the total amount collected, a measured quantity of 10 ml was drawn off and stored at −80°C until analysis. Concentrations of XR11576 in plasma were determined according to a validated liquid chromatography-mass spectrometry detection method with liquid–liquid extraction at the Drug Metabolism and Pharmacokinetics Department of Quintiles Limited (Internal Report at Quintiles). The lower limit of quantitation was 5 ng ml^−1.
The apparent terminal half-life (T1/2(z)) of XR11576 was calculated as ln 2/k, where k is the terminal elimination rate constant (expressed in h^−1). The peak plasma concentrations (Cmax) and the time to peak plasma concentration (Tmax) were determined from the experimental values. […] The total body clearance (CL) was calculated as the ratio between the administered dose and the AUC0–∞. The extent of accumulation (R0) in plasma was calculated from AUC0–24 h (days 4 or 5)/AUC0–24 h (day 1). The fraction of the administered dose (Fe) excreted in urine and the cumulative amount of XR11576 excreted in urine (Ae) was determined. […]

[3] = test system: murine and human tumour cell lines; set-up: method as in Mistry et al, 2002; Lewis et al, 2003; conditions: murine leukaemias and human colon, breast, ovarian and lung carcinoma cell lines; ref Mistry et al, 2002; Lewis et al, 2003; cited from earlier work
[4] = Plasma pharmacokinetics in patients (LC-MS, noncompartmental analysis); assay type: in vivo, human; conditions: for AUC(0-inf) / AUC(0-t) / Cmax / Tmax / half-life: plasma, oral
Description: For PK analysis, 58 blood samples (∼5 ml each) were obtained from an indwelling intravenous cannula and collected in vials containing lithium heparin as anticoagulant. The samples were taken immediately before dosing, 30 min and 1, 1.5, 2, 3, 4, 6, 8 and 10 h after administration of the drug on days 1 and 4 (or 5) of the first and second courses. Additional samples were taken immediately prior to dosing on days 2, 3, 4 and 5, and 24, 48, 72, 144 and 312 h after the dose administration on day 5, both in the first and second cycles. From the third cycle onwards, PK samples were taken prior to dosing on day 5 to measure the potential accumulation of XR11576.
as §1
The apparent terminal half-life (T1/2(z)) of XR11576 was calculated as ln 2/k, where k is the terminal elimination rate constant (expressed in h^−1). The peak plasma concentrations (Cmax) and the time to peak plasma concentration (Tmax) were determined from the experimental values. The areas under the plasma concentration–time curve (AUC) of XR11576 were estimated using the experimental values (trapezoidal rule) with extrapolation to infinity (AUC0–∞) using the apparent terminal rate constant, defined as the slope of the final three to four data points of the log-linear concentration–time plot. The total body clearance (CL) was calculated as the ratio between the administered dose and the AUC0–∞. The extent of accumulation (R0) in plasma was calculated from AUC0–24 h (days 4 or 5)/AUC0–24 h (day 1). The fraction of the administered dose (Fe) excreted in urine and the cumulative amount of XR11576 excreted in urine (Ae) was determined. PK data analysis was carried out using a noncompartmental analysis approach with the aid of WinNonlin Version Pron4.0.1 (Pharsight, Cary NC 27511).
A nonlinear power model was used to assess dose proportionality separately for each day during cycles 1 and 2. Statistical analyses were performed using SAS version 8.1.

[5] = rats; cited from earlier work
dogs = conditions: cited from earlier work
[6] = dogs, cited from earlier work
[7] = test system: multidrug-resistant cells overexpressing P-gp or MRP, cells with downregulation of topoisomerase II levels; set-up: method as in Di Nicolantonio et al, 2002; conditions: cells overexpressing P-gp or MRP or with downregulated topoisomerase II; ref Di Nicolantonio et al, 2002; cited from earlier work
rats = conditions: 14-day oral administration schedule; cited from earlier work
[8] = test system: human colon and small-cell lung cancer xenografts; set-up: method as in Mistry et al, 2002; Lewis et al, 2003; conditions: ref Mistry et al, 2002, Lewis et al, 2003; cited from earlier work
animals = conditions: in animals; cited from earlier work
[9] = mice; cited from earlier work
[10] = human, 30 mg day^−1, first treatment course, mean, N=3
[11] = human, 60 mg day^−1, first treatment course, mean, N=4
[12] = human, 120 mg day^−1, first treatment course, mean, N=8
[13] = human, 150 mg day^−1, first treatment course, mean, N=3
[14] = human, 180 mg day^−1, first treatment course, mean, N=3

Q: With COc1cccc2c1ccc1nc3cccc(C(=O)N[C@H](C)CN(C)C)c3nc12 [XR11576, 4-methoxy-benzo[a]phenazine-11-carboxylic acid (2-dimethulamino-1-R-methyl-ethyl)-amide] as the compound, how does the objective responses (advanced solid tumours; 21 assessable patients) read?
A: No objective responses

Q: And the “stable disease, median duration” value (advanced solid tumours; in vivo)?
A: 12 weeks

Q: What about the “stable disease, range of duration” value (advanced solid tumours; in vivo) of the same compound?
A: 12–30 weeks

Q: And the “patients with stabilisation of disease” value (advanced solid tumours; melanoma, cervical cancer and parotid cancer)?
A: Four patients

Q: What about the cardiac toxicity [1] of the same compound?
A: no cardiac toxicity was detected

Q: And the “administered dose excreted unchanged in urine” value [2]?
A: Less than 0.5%

Q: And the “antitumour activity in vitro” value [3]?
A: exerted antitumour activity

Q: What about the “R0 (ratio of accumulation)” value ([4]; 30 mg day^−1, first treatment course, mean, N=3) of the same compound?
A: 1.56

Q: And the “R0 (ratio of accumulation)” value ([4]; 60 mg day^−1, first treatment course, mean, N=4)?
A: 1.87

Q: And the “R0 (ratio of accumulation)” value ([4]; 120 mg day^−1, first treatment course, mean, N=8)?
A: 1.93

Q: And the “R0 (ratio of accumulation)” value ([4]; 150 mg day^−1, first treatment course, mean, N=3)?
A: 1.53

Q: And the “R0 (ratio of accumulation)” value ([4]; 180 mg day^−1, first treatment course, mean, N=3)?
A: 1.34

Q: And the “increase of systemic exposure with dose” value ([4]; 30–180 mg day^−1)?
A: greater than dose-proportional

Q: What about the “time of maximum peak drug levels post dose” value ([4]; all patients) of the same compound?
A: 3.69 ± 0.79 h

Q: What about the “accumulation in plasma: exposure higher by the last day of dosing” value ([4]; days 1–5 dosing) of the same compound?
A: approximately two-fold

Q: And the “interpatient coefficients of variation in AUC values” ([4]; human, in vivo)?
A: > 100%

Q: And the “relationship between apparent CL/F and BSA” value ([4]; human, in vivo)?
A: no relationship

Q: And the AUC(0-inf) [4, 10]?
A: 50 ng·h/mL

Q: And the AUC(0-t) [4, 10]?
A: 36.2 ng·h/mL

Q: What about the Cmax [4, 10] of the same compound?
A: 8.07 ng/mL

Q: What about the Tmax [4, 10] of the same compound?
A: 2.5 h

Q: What about the half-life ([4]; human, 30 mg day^−1, first treatment course, mean, N=3, read-out: T1/2 (converted)) of the same compound?
A: 5.53 h

Q: What about the AUC(0-inf) [4, 11] of the same compound?
A: 517 ng·h/mL

Q: What about the AUC(0-t) [4, 11] of the same compound?
A: 178 ng·h/mL

Q: And the Cmax [4, 11]?
A: 21.7 ng/mL

Q: What about the Tmax [4, 11] of the same compound?
A: 3.5 h

Q: What about the half-life ([4]; human, 60 mg day^−1, first treatment course, mean, N=4, read-out: T1/2 (converted)) of the same compound?
A: 68.8 h

Q: And the AUC(0-inf) [4, 12]?
A: 535 ng·h/mL

Q: And the AUC(0-t) [4, 12]?
A: 329 ng·h/mL

Q: And the Cmax [4, 12]?
A: 41.1 ng/mL

Q: What about the Tmax [4, 12] of the same compound?
A: 3.75 h

Q: And the half-life ([4]; human, 120 mg day^−1, first treatment course, mean, N=8, read-out: T1/2 (converted))?
A: 31.2 h

Q: And the AUC(0-inf) [4, 13]?
A: 2240 ng·h/mL

Q: And the AUC(0-t) [4, 13]?
A: 1710 ng·h/mL

Q: What about the Cmax [4, 13] of the same compound?
A: 167 ng/mL

Q: And the Tmax [4, 13]?
A: 4 h

Q: And the AUC(0-inf) [4, 14]?
A: 1810 ng·h/mL

Q: What about the AUC(0-t) [4, 14] of the same compound?
A: 970 ng·h/mL

Q: What about the Cmax [4, 14] of the same compound?
A: 112 ng/mL

Q: And the Tmax [4, 14]?
A: 4.67 h

Q: What about the half-life ([4]; human, all dose levels, read-out: mean terminal half-life) of the same compound?
A: ≤ 70 h

Q: What about the oral availability [5] of the same compound?
A: 54±32%

Q: What about the “maximum tolerated dose (MTD)” value (dogs; 8/9-day oral administration schedule) of the same compound?
A: 200 mg m^−2

Q: And the toxicities observed (dogs; i.v. doses repeatedly administered)?
A: myocarditis and nephritis

Q: And the “reduction in the systemic exposure” value ([6]; repeated daily oral doses)?
A: approximately 60%

Q: And the “increase of systemic exposure with dose” value ([6]; single oral administration)?
A: more than dose-proportionally

Q: What about the “activity against resistant cells” value [7] of the same compound?
A: active

Q: And the “maximum tolerated dose (MTD)” value (rats)?
A: 150 mg m^−2

Q: And the “activity against xenografts in vivo” value [8]?
A: highly active

Q: What about the predominantly induced toxicity (animals) of the same compound?
A: bone marrow and gastrointestinal toxicity

Q: And the “effect of food on bioavailability” value [9]?
A: food reduced the bioavailability

Q: And the oral availability [9]?
A: 72±25%
